Measurements taken from patent US20240368667A1, “RAPID, LABEL-FREE ANTIBIOTIC SUSCEPTIBILITY OF BACTERIA DIRECTLY FROM POSITIVE BLOOD OR BODILY FLUID/CULTURE” (priority 2021, published 2024).
Converted amounts (≈) assume the structure as drawn.

Assays:
[1] = system: S. aureus 78; assay: Microbroth dilution MIC with and without sucrose recovery; type: cell-based, Staphylococcus aureus; details: MIC given as multiple of S/I/R; for minimum inhibitory concentration (MIC), Standard: S. aureus 78 recovered by standard plating; for minimum inhibitory concentration (MIC), Sucrose: S. aureus 78 recovered through sucrose (Method 2)
Procedure: (§1) Microbroth dilution for minimum inhibitory concentrations (MIC) with and without sucrose recovery. To isolate bacteria without sucrose, culture media from positive BacT/alert FA PLUS aerobic culture bottles (bioMérieux, Durham, NC) was serially diluted and plated onto LB agar (Lennox; Sigma-Aldrich, St. Louis, MO). Bacterial suspensions were prepared by resuspending colonies in CAMHB with incubation on a MaxQ 4000 incubator shaker (Thermo Fisher Scientific, Waltham, MA) at 37° C. and ˜225 rpm for 3 hours. Bacteria recovered via Method 2 were diluted 10-fold in CAMHB. Following incubation or sucrose recovery and dilution, bacterial suspensions were adjusted to ˜0.004 OD600 with CAMHB and a 50-μL aliquot distributed to each well of a 96-well plate containing CAMHB with and without clinically relevant antibiotics (2-fold dilution series). Gram-negative plates included: ceftazidime (3rd generation cephalosporin, RPI corp., Mount Prospect, IL), cefepime (4th generation cephalosporin, Chem-Impex Int'l, Wood Dale, IL), meropenem (carbapenem, Tokyo Chemical Industry, Tokyo, Japan), levofloxacin (quinolone, Alfa Aesar, Haverhill, MA), and tobramycin (aminoglycoside, MP Biomedicals LLC, Santa Ana, CA), while S. aureus plates contained: oxacillin (beta-lactam, Sigma-Aldrich, St. Louis, MO), vancomycin (glycopeptide, Santa Cruz Biotechnology, Dallas, TX), erythromycin (macrolide, Sigma-Aldrich, St. Louis, MO), clindamycin ([…]), and ciprofloxacin (fluoroquinolone, Sigma-Aldrich, St. Louis, MO). Antibiotic plates were incubated at 37° C. for 16-20 hours (gram-negative) or 35° C. for 24 hours (S. aureus), at which time, plates were removed from the incubator and visually inspected for bacterial growth. The MIC was set at the lowest antibiotic concentration at which no growth was detected.
(§2) Influence of Sucrose on Bacterial MIC. To rule out the potential effect of sucrose exposure in bacterial antibiotic susceptibility, microbroth dilution studies were performed on bacteria recovered using standard practices (i.e. plating following positive blood culture) and through selective lysis coupled with centrifugation through the sucrose cushion (Method 2).

[2] = system: E. coli 79; assay: as above; type: cell-based, Escherichia coli; details: MIC given as multiple of S/I/R; for minimum inhibitory concentration (MIC), Standard: E. coli 79 recovered by standard plating
Procedure: as §1, §2

[3] = system: E. coli; assay: Influence of sucrose on bacterial growth (OD600); type: cell-based, Escherichia coli; details: E. coli recovered in 55% sucrose (w/v), undiluted, 37° C. with shaking
Procedure: (§3) Influence of sucrose on bacterial growth. To determine the effects of sucrose concentration on bacterial growth, bacteria recovered from positive blood cultures following Method 2 were diluted 1-fold (i.e. undiluted), 2-fold, 5-fold, 10-fold, 20-fold, and 100-fold in fresh CAMHB within a 96-well plate. The CAMHB broth inoculated with a fresh overnight culture was used as a positive control. Following dilution, samples were incubated at 37° C. with shaking, and growth was monitored at 15-min intervals via OD600 measurements using a plate reader (Hidex, Turku, Finland). To further investigate the effects of sucrose on bacterial growth, recovered bacteria-sucrose solutions were diluted 10-fold (optimal dilution factor) and growth was compared to control cultures inoculated with the original blood culture, an overnight culture, or colony resuspension without sucrose exposure. Growth (37° C. with shaking) was monitored via OD600 measurements using a Hidex plate reader.
(§4) Impact of sucrose on bacterial growth. […] Recovered bacteria within 55% sucrose (w/v) were directly or 2-fold (27.5%), 5-fold (11%), 10-fold (5.5%), 20-fold (2.75%), and 100-fold (0.55%) diluted in CAMHB and growth monitored on a plate reader set at 37° C. with medium shaking. […]

[4] = system: P. aeruginosa; assay: Influence of sucrose on bacterial growth (OD600); type: cell-based, Pseudomonas aeruginosa; details: P. aeruginosa recovered in 55% sucrose (w/v), undiluted, 37° C. with shaking
Procedure: as §3, §4

[5] = system: S. aureus; assay: Influence of sucrose on bacterial growth (OD600); type: cell-based, Staphylococcus aureus; details: S. aureus recovered in 55% sucrose (w/v), undiluted, 37° C. with shaking
Procedure: as §3, §4

[6] = system: P. aeruginosa 77; assay: Microbroth dilution MIC with and without sucrose recovery; type: cell-based, Pseudomonas aeruginosa; details: MIC given as multiple of S/I/R
Procedure: as §1, §2

[7] = system: S. aureus; assay: Broth microdilution (BMD) MIC; type: cell-based, Staphylococcus aureus; details: for MIC: Staphylococcus aureus
Procedure: as §1

[8] = system: S. aureus; assay: Direct flow cytometric AST (high-throughput flow cytometry, HTFC) of sucrose-recovered bacteria; type: cell-based, Staphylococcus aureus; details: for MIC: Staphylococcus aureus
Procedure: AST workflow using bacteria recovered directly from positive blood culture. A 1-mL aliquot of bacteria recovered using separation method 2 was diluted 10-fold in CAMHB, the OD600 adjusted to ˜0.01, and a 50 μL aliquot distributed into each well of a 96-well plate containing CAMHB with and without ceftazidime, tobramycin, and either meropenem (E. coli and P. aeruginosa) or oxacillin (S. aureus). Following Clinical and Laboratory Standards Institute (CLSI) guidelines^33, 2% sodium chloride (NaCl) was present in wells containing oxacillin to assist in the detection of methicillin-resistant S. aureus (MRSA). […] To account for observed differences in doubling and lag times, E. coli and P. aeruginosa were incubated for 4 hours at 37° C., while S. aureus was incubated for 9 hours at 35° C. After incubation, antibiotic plates were removed from the incubator and directly stored on ice (i.e. no post-processing) until high-throughput flow cytometry (BD LSRFortessa with HTS-system, BD, Franklin Lakes, NJ). No-antibiotic controls and antibiotic-treated samples were handled identically.
MIC Determination by flow cytometry. Because antibiotic effects are observed in both the position of scatter signatures (morphology changes) and count rates (growth inhibition), a modified count rate, accounting for scatter position, was used to evaluate susceptibility. Briefly, no-antibiotic control populations (triplicate) were pooled, binned, and a convex hull boundary set at 1-standard deviation above the background (not including bins with zero counts) was drawn. […] The overlap ratio, measuring changes in morphology, was then computed by dividing the number of sample events within the no-antibiotic control boundary by the total number of events within the sample. As an increase in count rate attributed to viable bacteria in antibiotic-treated samples is not scientifically meaningful, the fractional overlap was multiplied by the minimum of the control and sample count rates to generate a modified count rate accounting for antibiotic-induced morphological changes. All modified count rates were normalized by the average of the no-antibiotic controls. For automatic MIC determination, normalized count rates corresponding to n (index of predicted MIC), n+1, n+2 were iteratively fit to a linear function with a frameshift of n+1 between iterations (FIGS. 8 and 9). […] A threshold of −0.01 instead of zero was used to mitigate the influence of small fluctuations in normalized count rates on susceptibility determinations.

CN[C@H](CC(C)C)C(=O)N[C@H]1C(=O)N[C@@H](CC(N)=O)C(=O)N[C@H]2C(=O)N[C@H]3C(=O)N[C@H](C(=O)N[C@H](C(=O)O)c4cc(O)cc(O)c4-c4cc3ccc4O)[C@H](O)c3ccc(c(Cl)c3)Oc3cc2cc(c3O[C@@H]2O[C@H](CO)[C@@H](O)[C@H](O)[C@H]2O[C@H]2C[C@](C)(N)[C@H](O)[C@H](C)O2)Oc2ccc(cc2Cl)[C@H]1O [Vancomycin, vancomycin]
minimum inhibitory concentration (MIC), Standard [1]: ¼S | minimum inhibitory concentration (MIC), Sucrose [1]: ⅛S

C[C@H]1COc2c(N3CCN(C)CC3)c(F)cc3c(=O)c(C(=O)O)cn1c23 [Levofloxacin, levofloxacin]
minimum inhibitory concentration (MIC), Standard [2]: >4R | minimum inhibitory concentration (MIC), Sucrose ([2]; E. coli 79 recovered through sucrose (Method 2)): 4R

OC[C@H]1O[C@@](CO)(O[C@H]2O[C@H](CO)[C@@H](O)[C@H](O)[C@H]2O)[C@@H](O)[C@@H]1O [sucrose, D (+)-sucrose]
bacterial growth (OD600) [3]: inhibiting growth completely | bacterial growth (OD600) [4]: inhibiting growth completely | bacterial growth (OD600) [5]: inhibiting growth completely

CO/N=C(\C(=O)N[C@@H]1C(=O)N2C(C(=O)[O-])=C(C[N+]3(C)CCCC3)CS[C@H]12)c1csc(N)n1 [Cefepime, cefepime]
minimum inhibitory concentration (MIC), Standard ([6]; P. aeruginosa 77 recovered by standard plating): ½S | minimum inhibitory concentration (MIC), Sucrose ([6]; P. aeruginosa 77 recovered through sucrose (Method 2)): ¼S | minimum inhibitory concentration (MIC), Standard [2]: 2R

CC[C@H]1OC(=O)[C@H](C)[C@@H](O[C@H]2C[C@@](C)(OC)[C@@H](O)[C@H](C)O2)[C@H](C)[C@@H](O[C@@H]2O[C@H](C)C[C@H](N(C)C)[C@H]2O)[C@](C)(O)C[C@@H](C)C(=O)[C@H](C)[C@@H](O)[C@]1(C)O [Erythromycin, erythromycin]
minimum inhibitory concentration (MIC), Standard [1]: 4R | minimum inhibitory concentration (MIC), Sucrose [1]: 2R

Cc1onc(-c2ccccc2)c1C(=O)N[C@@H]1C(=O)N2[C@@H]1SC(C)(C)[C@@H]2C(=O)O [Oxacillin, oxacillin]
susceptibility classification, BMD ([7]; S. aureus ATCC25923): (MSSA) | susceptibility classification, BMD ([7]; S. aureus ATCC29213): (MSSA) | susceptibility classification, BMD ([7]; S. aureus ATCC43300): (MRSA) | susceptibility classification, BMD ([7]; S. aureus Blood Culture A): (MSSA) | susceptibility classification, BMD ([7]; S. aureus Blood Culture B): (MRSA) | susceptibility classification, BMD ([7]; S. aureus NRS382): (MRSA) | susceptibility classification, BMD ([7]; S. aureus NRS385): (MRSA) | MIC ([7]; ATCC25923, read-out: Minimum inhibitory concentration, BMD, S. aureus ATCC25923): 0.125 mg/L (≈ 0.311 µM) | MIC ([7]; ATCC29213, read-out: Minimum inhibitory concentration, BMD, S. aureus ATCC29213): 0.25 mg/L (≈ 0.623 µM) | MIC ([7]; ATCC43300, read-out: Minimum inhibitory concentration, BMD, S. aureus ATCC43300): 16 mg/L (≈ 39.9 µM) | MIC ([7]; S. aureus NRS382, read-out: Minimum inhibitory concentration, BMD): > 16 mg/L | MIC ([7]; S. aureus NRS385, read-out: Minimum inhibitory concentration, BMD): > 16 mg/L | MIC ([7]; read-out: Minimum inhibitory concentration, BMD, S. aureus Blood Culture A): 0.125 mg/L (≈ 0.311 µM) | MIC ([7]; read-out: Minimum inhibitory concentration, BMD, S. aureus Blood Culture B): > 16 mg/L | minimum inhibitory concentration (MIC), Standard [1]: 4R | minimum inhibitory concentration (MIC), Sucrose [1]: 4R | susceptibility classification, HTFC ([8]; S. aureus ATCC25923, oxacillin 9 hours (35° C.)): (MSSA) | susceptibility classification, HTFC ([8]; S. aureus ATCC29213, oxacillin 9 hours (35° C.)): (MSSA) | susceptibility classification, HTFC ([8]; S. aureus ATCC43300, oxacillin 9 hours (35° C.)): (MRSA) | susceptibility classification, HTFC ([8]; S. aureus Blood Culture A, oxacillin 9 hours (35° C.)): (MSSA) | susceptibility classification, HTFC ([8]; S. aureus Blood Culture B, oxacillin 9 hours (35° C.)): (MRSA) | susceptibility classification, HTFC ([8]; S. aureus NRS382, oxacillin 9 hours (35° C.)): MRSA | susceptibility classification, HTFC ([8]; S. aureus NRS385, oxacillin 9 hours (35° C.)): MRSA | MIC ([8]; 9 h, read-out: Minimum inhibitory concentration, HTFC, S. aureus Blood Culture A, oxacillin 9 hours (35° C.)): 0.125 mg/L (≈ 0.311 µM) | MIC ([8]; 9 h, read-out: Minimum inhibitory concentration, HTFC, S. aureus Blood Culture B, oxacillin 9 hours (35° C.)): 4 mg/L (≈ 9.96 µM) | MIC ([8]; ATCC25923, 9 h, read-out: Minimum inhibitory concentration, HTFC, S. aureus ATCC25923, oxacillin 9 hours (35° C.)): 0.25 mg/L (≈ 0.623 µM) | MIC ([8]; ATCC29213, 9 h, read-out: Minimum inhibitory concentration, HTFC, S. aureus ATCC29213, oxacillin 9 hours (35° C.)): 2 mg/L (≈ 4.98 µM) | MIC ([8]; ATCC43300, 9 h, read-out: Minimum inhibitory concentration, HTFC, S. aureus ATCC43300, oxacillin 9 hours (35° C.)): > 4 mg/L | MIC ([8]; S. aureus NRS382, oxacillin 9 hours (35° C.), read-out: Minimum inhibitory concentration, HTFC): > 4 mg/L | MIC ([8]; S. aureus NRS385, oxacillin 9 hours (35° C.), read-out: Minimum inhibitory concentration, HTFC): > 4 mg/L

CCC[C@@H]1C[C@@H](C(=O)N[C@@H]([C@H]2O[C@H](SC)[C@H](O)[C@@H](O)[C@H]2O)[C@H](C)Cl)N(C)C1 [Clindamycin, clindamycin]
minimum inhibitory concentration (MIC), Standard [1]: 4R | minimum inhibitory concentration (MIC), Sucrose [1]: 4R
